Assay results taken from publication PMC9578392, “Safety, Tolerability, and Pharmacokinetics of the Novel Antiviral Agent Ensitrelvir Fumaric Acid, a SARS-CoV-2 3CL Protease Inhibitor, in Healthy Adults” (Antimicrobial Agents and Chemotherapy, 2022).

Key:
[1] = tested on: CYP3A; experiment: Drug-drug interaction with midazolam (cohort G)
[2] = tested on: Omicron; design: method as in PMID 35081300; details: cited from earlier work
[3] = in vivo; cited from earlier work
[4] = midazolam 2 mg, ensitrelvir 750/250 mg

Structure (SMILES): Cc1ncc2n1-c1ccc(Cl)cc1C(c1ccccc1F)=NC2 [Midazolam, midazolam]
- increase of AUC0-last of midazolam coadministered with ensitrelvir vs midazolam alone ([1]; ensitrelvir 750/250 mg, day 6): 7.23 fold
- increase of Cmax of midazolam coadministered with ensitrelvir vs midazolam alone ([1]; ensitrelvir 750/250 mg, day 6): 2.78 fold
- half-life ([1]; human, in vivo): 9.13 h
- AUC(0-inf) ([1]; human, in vivo, 2 mg): 35.7 ng·h/mL
- AUC(0-t) ([1]; human, in vivo, 2 mg): 34.7 ng·h/mL
- Cmax ([1]; human, in vivo, 2 mg): 16.2 ng/mL
- MRT ([1]; human, in vivo, 2 mg): 4.11 h
- half-life ([1]; human, in vivo, 2 mg): 4.36 h
- k el ([1]; human, in vivo, 2 mg): 4.42e-05 s⁻¹
- AUC0-inf, GLS mean (90% CI) ratio (midazolam with ensitrelvir/midazolam alone) [1, 4]: 8.8002 (6.7061/11.5484)
- AUC0-last, GLS mean (90% CI) ratio (midazolam with ensitrelvir/midazolam alone) [1, 4]: 7.2293 (5.5817/9.3632)
- Cmax, GLS mean (90% CI) ratio (midazolam with ensitrelvir/midazolam alone) [1, 4]: 2.7763 (2.3341/3.3022)
- MRT, GLS mean (90% CI) ratio (midazolam with ensitrelvir/midazolam alone) [1, 4]: 2.8734 (2.5380/3.2530)
- t1/2,z, GLS mean (90% CI) ratio (midazolam with ensitrelvir/midazolam alone) [1, 4]: 2.0954 (1.9490/2.2529)

Structure (SMILES): CC(C)C(=O)OC[C@H]1O[C@@H](n2ccc(NO)nc2=O)[C@H](O)[C@@H]1O [molnupiravir]
- efficacy against Omicron [2]: efficacious

Structure (SMILES): CC(C)(C)[C@H](NC(=O)C(F)(F)F)C(=O)N1C[C@H]2[C@@H]([C@H]1C(=O)N[C@H](C#N)C[C@@H]1CCNC1=O)C2(C)C [nirmatrelvir]
- elimination in humans [3]: rapid

Structure (SMILES): CCC(CC)COC(=O)[C@H](C)N[P@](=O)(OC[C@H]1O[C@@](C#N)(c2ccc3c(N)ncnn23)[C@H](O)[C@@H]1O)Oc1ccccc1 [remdesivir]
- efficacy against Omicron [2]: efficacious
